Measurements taken from patent US9834581B2, “Cell penetrating peptides for intracellular delivery of molecules” (AADIGEN, LLC, priority 2012, dated 2017).
Like-named read-outs stand apart in the source and are kept apart here. *1 amine or outer side, *2 acyl side, *3 side chain or, on linkers, in order; H or OH if unused. Where a SMILES comes first, the peptide text is derived from it. [ ]: non-standard residue; d: D form. Cysteamide = C(CS[*:3])N[*:1]; βAla = NCCC(=O)O

Key:
[1] = system: HEK2; assay: cells; assay type: cell-based
Procedure: (§1) Adherent HS68 fibroblasts, HeLa, PC3, CEM-SS, U20S, MCF-7, and HEK2 cell lines (from American Type Culture Collection (ATCC)), as well as MEF and PBMC, were cultured in Dulbecco's Modified Eagle's Medium supplemented with 2 mM glutamine, 1% antibiotics (streptomycin 10,000 μg/ml, penicillin, 10,000 IU/ml) and 10% (w/v) foetal calf serum (FCS), at 37° C. in a humidified atmosphere containing 5% CO2. Stock solutions of VEPEP-4/peptide particles were prepared by complexing 1 μM peptide with VEPEP-4 peptides at a molar ratio of 1/20 for 30 min at 37° C. Lower concentrations of VEPEP-4-carrier/peptide (from 500 nM to 1 μM) were obtained by serial dilution of the stock complexes in PBS, in order to preserve the same VEPEP-4-carrier/peptide ratio. 150,000 cells seeded in a 35 mm dish the day prior transfection, were grown to 60% confluence and overlaid with 200 μl of preformed complexes, incubated for 3-5 min, then 400 μl of DMEM were added. After 30 min. incubation at 37° C., 1 ml of fresh DMEM containing 16% foetal calf serum (FCS) was added in order to reach a final FCS concentration of 10%, without removing the overlay of VEPEP-4/peptide complexes. Cells were returned to the incubator for 24 hrs. For CDK2 derived peptides cell proliferation was monitored after 24 and 48 hrs. For peptide-targeting integrase, HIV proliferation was analyzed on activated PBMC cells after 3 and 5 days. Data reported are an average of 3 or 4 distinct experiments.
(§2) VEPEP-4 peptides have been used for the delivery of different small fluorescent hydrophobic and charged molecules as well as doxorubicin on different cell lines including primary cell lines and challenging cell lines. VEPEP-4 peptides form stable particles with small aromatic molecules including doxorubicin. Effect of VEPEP-4 mediated delivery of doxorubicin has been investigated on cancer cell viability. […] The impact of carrier peptides to improve cellular uptake of small molecule drugs was estimated by following inhibition of proliferation of cancer cells.

[2] = system: Cyclic peptide (PC4); assay: Fluorescence titration of VEPEP-4 binding to cyclic peptide cargo
Procedure: (§3) Fluorescence experiments were performed on a PTI spectrofluorimeter at 25° C. in a NaCl 154 mM buffer. Intrinsic Trp-fluorescence of VEPEP-4 was excited at 290 nm and emission spectrum was recorded between 310 and 400 nm, with a spectral band-pass of 2 and 8 nm for excitation and emission, respectively. FITC-fluorescence of labelled-peptide was excited at 492 nm and emission recorded between 500 and 580 nm. For VEPEP-4/peptide interaction, 0.5 μM of FITC-labelled peptide was titrated by increasing concentrations of VEPEP-4. All measurements were corrected for the dilution and curve fitting were performed by using Grafit software (Erithacus).
(§4) VEPEP-4i (SEQ ID No: 1) and VEPEP-4j (SEQ ID No: 2) peptides form stable complexes with peptides. The binding of cargos to VEPEP-4 was monitored by fluorescence spectroscopy using the both intrinsic Trp group of VEPEP-4 (4 Trp-residues) and extrinsic fluorescently labeled cargoes (using Cy5 or FITC). Curve fitting reveal that VEPEP-4 strongly binds the different cargoes with dissociation constant in the nanomolar range (Table 1 and FIG. 1).

[3] = system: Hela; assay: cells
Procedure: Cells were returned to the incubator for 24 hrs.
Effect of VEPEP-4 mediated delivery of doxorubicin has been investigated on cancer cell viability.

[4] = system: MCF7; assay type: cell-based, Human
Procedure: as §1, §2

[5] = system: Peptide (C4); assay: Fluorescence titration of VEPEP-4 binding to peptide cargo
Procedure: as §3, §4

[6] = Fluorescence titration of VEPEP-4 binding to small molecule cargo
Procedure: as §3
VEPEP-4 peptides also form stable particles with small aromatic molecules including daunomycin, Paclitaxel, doxorubicin, porphyrin and charged molecules including nucleotide, nucleoside and peptide-analogue of nucleic acids or fluorescent dyes. The dissociation constant for small hydrophobic molecule ranges between 0.05 to 2 μM, depending on the nature of the dyes and of the peptides.
Binding of small molecule cargoes has been investigated in detail depending on the nature of the SMH. Several hydrophobic and charges molecules have been use (Daunomycin, Paclitaxel, doxorubicin, porphyrin) and charged molecules (nucleotide, nucleoside and fluorescent dyes).

[7] = system: HIV-1LAI; assay type: cell-based; conditions: for IC50: 1LAI
Procedure: as §1
The anti-HIV activities of the peptides (PC4D, PC4S, PC6D, PC6S) and VEPEP-4/peptides complexes were assayed according to previously described method (Roisin et al, 2004). Phytohemagglutinin-P (PHA-P)-activated peripheral blood mononuclear cells (PBMC) treated by increasing concentrations of peptide (from 100 to 0.1 nM), one hour later, were infected with hundred 50% tissue culture infectious doses (TCID50) per 100,000 cells of the HIV-1-LAI or different resistant strains (Barre-Sinoussi et al, 1983). Viruses were amplified in vitro on PHA-P-activated PBMC. Viral stock was titrated using PHA-P-activated PBMC, and 50% TCID50 were calculated using Kärber's formula (Karber 1931). Samples were maintained throughout the culture, and cell supernatants were collected at day 7 post-infection and stored at −20 C. Viral replication was measured by quantifying RT activity in cell culture supernatants. In parallel, cytotoxicity of the compounds was evaluated in uninfected PHA-P-activated PBMC by colorimetric 3-(4-5 dimethylthiazol-2-yl)2,5 diphenyl tetrazolium bromite (MTT) assay on day 7 (Mossmann 1983). Experiments were performed in triplicate and repeated with another blood donor. […]

[8] = system: MCF7; assay: VEPEP-4 mediated delivery of fluorescently labelled peptide (fluorescence microscopy or FACS); assay type: cell-based, Human; conditions: MCF7, uptake of fluorescently labelled peptide cargo
Procedure: as §1
(§5) VEPEP-4 peptides have been used for the delivery of different peptides into different cell lines, including primary cell lines, stem cell lines and challenging cell lines. Peptide delivery was monitored using three approaches, fluorescence spectroscopy and monitoring biological responses (anti proliferation and anti viral responses).
(§6) 1—Fluorescently labelled peptide was visualized in the different cell lines using fluorescence microscopy or FACS sorting (Table 3). In most of the cell lines, the uptake of Cy-5 labelled peptides is more than 70% of the cells.

[9] = system: HS-68; assay: as above; assay type: cell-based, Human; conditions: HS-68, uptake of fluorescently labelled peptide cargo
Procedure: as §1, §5, §6

[10] = system: CEM-SS; assay: as above; assay type: cell-based, Human; conditions: uptake of fluorescently labelled peptide cargo
Procedure: as §1, §5, §6

[11] = system: Hela; assay: as above; assay type: cell-based, Human; conditions: uptake of fluorescently labelled peptide cargo
Procedure: as §1, §5, §6

[12] = system: U2OS; assay: as above; assay type: cell-based, Human; conditions: uptake of fluorescently labelled peptide cargo
Procedure: as §1, §5, §6

[13] = system: PBMC; assay: as above; assay type: cell-based, Human; conditions: uptake of fluorescently labelled peptide cargo
Procedure: as §1, §5, §6

[14] = system: MEF; assay: as above; assay type: cell-based, Mouse; conditions: uptake of fluorescently labelled peptide cargo
Procedure: as §1, §5, §6

[15] = system: Hela cells
Procedure: (§7) Adherent HS68 fibroblasts, HeLa, PC3, CEM-SS, U20S, MCF-7, and HEK2 cell lines (from American Type Culture Collection (ATCC)), as well as MEF and PBMC, were cultured in Dulbecco's Modified Eagle's Medium supplemented with 2 mM glutamine, 1% antibiotics (streptomycin 10,000 μg/ml, penicillin, 10,000 IU/ml) and 10% (w/v) foetal calf serum (FCS), at 37° C. in a humidified atmosphere containing 5% CO2. Stock solutions of VEPEP-4/peptide particles were prepared by complexing 1 μM peptide with VEPEP-4 peptides at a molar ratio of 1/20 for 30 min at 37° C. […] 150,000 cells seeded in a 35 mm dish the day prior transfection, were grown to 60% confluence and overlaid with 200 μl of preformed complexes, incubated for 3-5 min, then 400 μl of DMEM were added. After 30 min. incubation at 37° C., 1 ml of fresh DMEM containing 16% foetal calf serum (FCS) was added in order to reach a final FCS concentration of 10%, without removing the overlay of VEPEP-4/peptide complexes. Cells were returned to the incubator for 24 hrs. For CDK2 derived peptides cell proliferation was monitored after 24 and 48 hrs. […] Data reported are an average of 3 or 4 distinct experiments.

[16] = system: MCF7 cells
Procedure: as §7

| Compound | IC50 [1] [nM] | Binding [2] | Kd [2] [nM] | IC50 [3] [nM] | IC50 [4] [nM] | Binding [5] | Kd [5] [nM] | Binding ([6]; cargo Doxorubicin) | Kd ([6]; cargo Doxorubicin) [nM] | Binding ([6]; cargo FAM-guanosine) | Kd ([6]; cargo FAM-guanosine) [nM] | Binding ([6]; cargo porphyrin) | Kd ([6]; cargo porphyrin) [nM] | IC50 [7] [nM] | Efficiency [8] [%] | Efficiency [9] [%] | Efficiency [10] [%] | Efficiency [11] [%] | Efficiency [12] [%] | Efficiency [13] [%] | also measured |
| --- | --- | --- | --- | --- | --- | --- | --- | --- | --- | --- | --- | --- | --- | --- | --- | --- | --- | --- | --- | --- | --- |
| CC(=O)NCCC(=O)N[C@@H](Cc1c[nH]c2ccccc12)C(=O)N[C@@H](Cc1c[nH]c2ccccc12)C(=O)N[C@@H](CCCNC(=N)N)C(=O)N[C@@H](CC(C)C)C(=O)N[C@@H](CCCNC(=N)N)C(=O)N[C@@H](CO)C(=O)N[C@@H](Cc1c[nH]c2ccccc12)C(=O)N[C@@H](Cc1ccccc1)C(=O)N[C@@H](CCCNC(=N)N)C(=O)NCCS [Short 3, X1WWRLRSWFR] (Ac-[βAla]WWRLRSWFR-Cysteamide) | 1100 | yes | 50 to 100 | 1200 | 900 | yes | 10 to 20 | yes | 100 | yes | 100 | yes | 700 |  |  |  |  |  |  |  |  |
| COc1cccc2c1C(=O)c1c(O)c3c(c(O)c1C2=O)C[C@@](O)(C(=O)CO)C[C@@H]3O[C@H]1C[C@H](N)[C@H](O)[C@H](C)O1 [Doxo, doxorubicin, reference compound] |  |  |  |  |  |  |  |  |  |  |  |  |  |  |  |  |  |  |  |  | IC50 ([1]; HEK2, Free drug, read-out: IC50): 10000 nM; fold more efficient when complexed with VEPEP-4 ([1]; complexed versus free drug, cancer cells of Table 5): 25 fold; IC50 ([3]; Homo sapiens, HeLa): 25000 nM |
| CC(=O)NCCC(=O)N[C@@H](Cc1c[nH]c2ccccc12)C(=O)N[C@@H](Cc1ccccc1)C(=O)N[C@@H](CCCNC(=N)N)C(=O)N[C@@H](CC(C)C)C(=O)N[C@@H](CO)C(=O)N[C@@H](CC(C)C)C(=O)N[C@@H](CCCNC(=N)N)C(=O)N[C@@H](Cc1ccccc1)C(=O)N[C@@H](Cc1c[nH]c2ccccc12)C(=O)N[C@@H](CCCNC(=N)N)C(=O)NCCS [VEPEP-3j, X1WFRLSLRFWR] (Ac-[βAla]WFRLSLRFWR-Cysteamide) | 300 | yes | 50 to 100 | 800 | 200 | yes | 10 to 20 | yes | 70 | yes | 50 | yes | 500 | 0.17 ± 0.07 | 65 | 80 | 65 | 62 | 81 | 80 | Efficiency [14]: 70% |
| CC(=O)NCCC(=O)N[C@@H](Cc1c[nH]c2ccccc12)C(=O)N[C@@H](Cc1c[nH]c2ccccc12)C(=O)N[C@@H](CCCNC(=N)N)C(=O)N[C@@H](CC(C)C)C(=O)N[C@@H](CO)C(=O)N[C@@H](CC(C)C)C(=O)N[C@@H](CCCNC(=N)N)C(=O)N[C@@H](Cc1c[nH]c2ccccc12)C(=O)N[C@@H](Cc1c[nH]c2ccccc12)C(=O)NCCS [VEPEP-3i, X1WWRLSLRWW] (Ac-[βAla]WWRLSLRWW-Cysteamide) | 400 | yes | 50 to 100 | 1200 | 500 | yes | 10 to 20 | yes | 50 | yes | 60 | yes | 400 | 0.24 ± 0.1 | 50 | 80 | 70 | 65 | 78 | 80 | Efficiency [14]: 84% |
| TWFTEWFT (Ac-TWFTEWFT-Cysteamide; SMILES CC(=O)N[C@H](C(=O)N[C@@H](Cc1c[nH]c2ccccc12)C(=O)N[C@@H](Cc1ccccc1)C(=O)N[C@H](C(=O)N[C@@H](CCC(=O)O)C(=O)N[C@@H](Cc1c[nH]c2ccccc12)C(=O)N[C@@H](Cc1ccccc1)C(=O)N[C@H](C(=O)NCCS)[C@@H](C)O)[C@@H](C)O)[C@@H](C)O) [PC4S, scrambled peptide, control of PC4D, reference compound] |  |  |  |  |  |  |  |  |  |  |  |  |  |  |  |  |  |  |  |  | anti viral activity ([7]; scrambled peptide, PBMC infected by HIV-1LAI): do not show any anti viral activity |
| CC(=O)NCCC(=O)N[C@@H](Cc1c[nH]c2ccccc12)C(=O)N[C@@H](Cc1ccccc1)C(=O)N[C@@H](CCCNC(=N)N)C(=O)N[C@@H](CC(C)C)C(=O)N[C@@H](CO)C(=O)N[C@@H](CC(C)C)C(=O)N[C@@H](CCCNC(=N)N)C(=O)N[C@@H](Cc1ccccc1)C(=O)N[C@@H](Cc1c[nH]c2ccccc12)C(=O)NCCS [Short 4, X1WFRLSLRFW] (Ac-[βAla]WFRLSLRFW-Cysteamide) | 500 | yes | 50 to 100 | 600 | 500 | yes | 10 to 20 | yes | 10 | yes | 70 | yes | 600 | 0.37 ± 0.1 | 78 | 87 | 74 | 58 | 65 | 65 | Efficiency [14]: 67% |
| CSCC[C@H](NC(=O)[C@H](CCCNC(=N)N)NC(=O)[C@@H](NC(=O)[C@H](CCC(N)=O)NC(=O)[C@H](CCCCN)NC(=O)[C@@H](N)CCCCN)C(C)C)C(=O)N[C@@H](C)C(=O)N[C@@H](Cc1c[nH]cn1)C(=O)N[C@@H](CC(C)C)C(=O)N[C@H](C(=O)N[C@@H](CC(C)C)C(=O)N[C@H](C(=O)O)[C@@H](C)O)C(C)C [C4, KKQVRMAHLVLT] (H-KKQVRMAHLVLT-OH; N-terminus and C-terminus assumed) |  |  |  |  |  |  |  |  |  |  |  |  |  |  |  |  |  |  |  |  | IC50 [15]: 50 ± 15 nM; concentration sufficient to block proliferation ([15]; Hela, C4 delivered by VEPEP-4): 100 nM; IC50 [16]: 60 ± 12 nM; concentration sufficient to block proliferation ([16]; MCF7, C4 delivered by VEPEP-4): 100 nM |
